Assay results as given in ChEMBL document CHEMBL4354883, “Design, Synthesis, and Biological Evaluation of HSP90 Inhibitor-SN38 Conjugates for Targeted Drug Accumulation” (J Med Chem, 2020).
Active and inactive are the calls of the source. No cut-off for these calls is given here.

Assays:
HCT-116 [1] = test: Antitumor activity against human HCT116 cells xenografted in mouse assessed as reduction in tumor growth at 50 mg/kg, iv for 5 consecutive days per week and measured every 3 to 4 days up to 14 days; assay type: functional, organism-based
HCT-116 [2] = test: Induction of cell cycle arrest in human HCT116 cells assessed as accumulation at G2/M phase after 24 hrs by RNase A/PI-staining based flow cytometric analysis; assay type: functional
A549 [3] = test: Induction of cell cycle arrest in human A549 cells assessed as accumulation at G2/M phase after 24 hrs by RNase A/PI-staining based flow cytometric analysis; assay type: functional
HCT-116 [4] = test: Antitumor activity against human HCT116 cells xenografted in mouse assessed as reduction in tumor volume at 50 mg/kg, iv for 5 consecutive days per week and measured every 3 to 4 days up to 14 days by microcaliper analysis relative to control; assay type: functional
[5] = Drug uptake in human A549 cells assessed as endocytosis-mediated total cellular drug internalization at 5 uM after 12 hrs by LC-MS/MS analysis relative to SN38; assay type: ADME, cell-based; details: a549, 12 h
MIA PaCa-2 = test: Antiproliferative activity against human MIAPaCa2 cells assessed as reduction in cell viability after 72 hrs by SRB assay; assay type: functional, cell-based; details: MIA PaCa-2, 72 h
[6] = Half life in mouse plasma at 25 uM by HPLC analysis; assay type: ADME, cell-free
[7] = Half life in human plasma at 25 uM by HPLC analysis; assay type: ADME, cell-free
A549 [8] = test: Downregulation of TOP1 expression in human A549 cells after 24 hrs by Western blot analysis; assay type: functional, cell-based
Heat shock protein HSP90 [9] = molecular target: T1, Heat shock protein HSP90 (Homo sapiens, UniProt P07900+P08238); test: Drug uptake in human A549 cells assessed as eHSP90-mediated drug internalization by measuring blue fluorescence in PBS solution at 5 uM after 1 to 12 hrs by confocal laser scanning microscopic analysis; assay type: ADME, cell-based; details: a549, 5 µM, TDE = time-dependent effect
[10] = Half life of compound in PBS buffer at pH 6.0 at 50 uM by HPLC analysis; assay type: physicochemical
A549 [11] = test: Ratio of prodrug release in human A549 cells assessed as increase in 7-ethyl-10-hydroxycamptothecin level at 5 uM after 12 hrs by LC-MS/MS analysis to prodrug release in human A549 cells assessed as increase in 7-ethyl-10-hydroxycamptothecin level at 5 uM after 1 hr by LC-MS/MS analysis; assay type: ADME, cell-based; details: a549, 5 µM
[12] = Half life in human liver microsomes at 1 uM preincubated for 5 mins followed by NADPH addition and measured up to 360 mins by LC-MS/MS analysis; assay type: ADME, Microsome
L02 = test: Cytotoxicity agains human HL7702 cells assessed as reduction in cell viability after 72 hrs by SRB assay; assay type: cell-based; details: L02, 72 h
[13] = Drug uptake in human A549 cells assessed as blue shift in absorption spectrum at 5 uM by UV-visible absorption spectral analysis; assay type: ADME, cell-based; details: a549, 5 µM
[14] = Apparent volume of distribution at steady state in BALB/c mouse at 50 mg/kg, iv after 5 to 24 hrs by LC-MS/MS analysis; assay type: ADME, organism-based; details: in vivo, read-out: Vdss(app)
[15] = Drug uptake in human A549 cells assessed as endocytosis-mediated total cellular drug internalization at 5 uM after 12 hrs by LC-MS/MS analysis relative to irinotecan; assay type: ADME, cell-based; details: a549, 12 h
[16] = Metabolic stability in human liver microsomes assessed as compound remaining at 1 uM preincubated for 5 mins followed by NADPH addition and measured after 60 mins by LC-MS/MS analysis; assay type: ADME, Microsome; details: read-out: Stability
HCT-116 [17] = test: Antiproliferative activity against human HCT116 cells assessed as reduction in cell viability after 72 hrs by SRB assay; assay type: functional, cell-based; details: HCT-116, 72 h
[18] = Intrinsic clearance in human liver microsomes at 1 uM preincubated for 5 mins followed by NADPH addition and measured up to 360 mins by LC-MS/MS analysis; assay type: ADME, Microsome; details: 6 h
[19] = Drug uptake in human A549 cells assessed as blue fluorescence at 5 uM after 12 hrs by confocal laser scanning microscopic analysis; assay type: ADME, cell-based; details: a549, 12 h
[20] = molecular target: Heat shock protein HSP 90-alpha (Homo sapiens, UniProt P07900); test: biochemical
Description: Inhibition of recombinant human full length HSP90 alpha expressed in Escherichia coli cells after 1 hr by fluorescence polarization assay

[21] = Toxicity in mouse xenografted with human HCT116 cells assessed as body weight loss at 50 mg/kg, iv for 5 consecutive days per week and measured every 3 to 4 days up to 14 days relative to control; assay type: organism-based; details: in vivo
[22] = Half life of compound in PBS buffer at pH 7.4 at 50 uM by HPLC analysis; assay type: physicochemical
[23] = Clearance in BALB/c mouse at 50 mg/kg, iv after 5 to 24 hrs by LC-MS/MS analysis; assay type: ADME, organism-based; details: in vivo
CAPAN-1 [24] = test: Induction of cell cycle arrest in human Capan1 cells assessed as accumulation at G2/M phase after 24 hrs by RNase A/PI-staining based flow cytometric analysis; assay type: functional
[25] = Drug uptake in human A549 cells assessed as maximum emission peaks at 430 nm at 5 uM by fluorescence emission spectral analysis; assay type: ADME, cell-based; details: a549, 5 µM
[26] = Half life in BALB/c mouse at 50 mg/kg, iv after 5 to 24 hrs by LC-MS/MS analysis; assay type: ADME, organism-based; details: in vivo
A549 [27] = test: Antiproliferative activity against human A549 cells assessed as reduction in cell viability after 72 hrs by SRB assay; assay type: functional, cell-based; details: A549, 72 h
Heat shock protein HSP90 [28] = molecular target: T1, Heat shock protein HSP90; test: Inhibition of HSP90 in human A549 cells assessed as downregulation of AKT protein expression after 24 hrs by Western blot analysis; assay type: cell-based
[29] = AUC(0 to infinity) in BALB/c mouse at 50 mg/kg, iv after 5 to 24 hrs by LC-MS/MS analysis; assay type: ADME, organism-based; set-up: dose 50 mg/kg, route intravenous, time infinity; details: in vivo
HCT-116 [30] = test: Downregulation of TOP1 expression in human HCT116 cells after 24 hrs by Western blot analysis; assay type: functional, cell-based
CAPAN-1 [31] = test: Antiproliferative activity against human Capan1 cells assessed as reduction in cell viability after 72 hrs by SRB assay; assay type: functional, cell-based; details: CAPAN-1, 72 h
HCT-116 [32] = test: Antitumor activity against human HCT116 cells xenografted in mouse assessed as tumor weight at 50 mg/kg, iv for 5 consecutive days per week and measured every 3 to 4 days up to 14 days (reference value: 1.73 +/- 0.53 g); assay type: functional
[33] = Drug uptake in human A549 cells assessed as eHSP90-mediated total cellular drug internalization at 5 uM after 12 hrs by LC-MS/MS analysis; assay type: ADME, cell-based; details: a549, 12 h
[34] = Prodrug release in tumor of mouse xenografted with human Capan1 cells assessed as increase in 7-ethyl-10-hydroxycamptothecin level at 50 mg/kg, iv after 72 hrs by LC-MS/MS analysis; assay type: ADME, organism-based, Neoplasm; details: in vivo
Mus musculus = test: In vivo inhibition of HSP90 in mouse xenografted with human Capan1 cells assessed as decrease in AKT protein expression at 50 mg/kg, iv for every 2 days measured at 2 hrs post last dose by Western blot analysis; assay type: functional, organism-based

| SMILES | Activity (HCT-116 [1]) | Activity (HCT-116 [2]) | Activity (A549 [3]) | T/C (HCT-116 [4]) [%] | fold change (FC) [5] | IC50 (MIA PaCa-2) [nM] | half-life at 25 µM [6] [h] | half-life at 25 µM [7] [h] | TOP1 downregulation (A549 [8]) | Drug uptake (Heat shock protein HSP90 [9]) | half-life at 50 µM [10] [h] | Ratio (A549 [11]) | half-life at 1 µM [12] [h] | IC50 (L02) [nM] | Drug uptake [13] | Vd [14] [L/kg] | fold change (FC) [15] | remaining at 1 h, 1 µM [16] [%] | IC50 (HCT-116 [17]) [nM] | CLH [18] [mL/min/kg] | also measured |
| --- | --- | --- | --- | --- | --- | --- | --- | --- | --- | --- | --- | --- | --- | --- | --- | --- | --- | --- | --- | --- | --- |
| CCc1c2c(nc3ccc(OC(=O)N4CCC(NC(=O)c5noc(-c6cc(C(C)C)c(O)cc6O)c5-c5ccc(CN6CCOCC6)cc5)CC4)cc13)-c1cc3c(c(=O)n1C2)COC(=O)[C@]3(O)CC | Active | Dose-dependent effect | Dose-dependent effect | 33.8 | 1.6 to 1.9 | 644 | > 24 | > 24 | Dose-dependent effect | Tde | > 24 | 3.7 | 2.6 | 7360 | Active | 0.103 | 2.8 to 3.8 | 87 | 614 | 4.9 | Drug uptake [19]: Active; IC50 [20]: 164 nM; Activity [21]: < 20%; half-life at 50 µM [22]: > 24 h; clearance [23]: 6.91 mL/min/kg; Activity (CAPAN-1 [24]): Dose-dependent effect; Drug uptake [25]: Active; half-life [26]: 1.72 h; IC50 (A549 [27]): 1110 nM; inhibition (Heat shock protein HSP90 [28]): Dose-dependent effect; AUC(0-inf) [29]: 172 µg·h/mL; inhibition (HCT-116 [30]): Dose-dependent effect; IC50 (CAPAN-1 [31]): 6800 nM; Activity (HCT-116 [32]): 0.47 g; Drug uptake [33]: Active |
| CCc1c2c(nc3ccc(O)cc13)-c1cc3c(c(=O)n1C2)COC(=O)[C@@]3(CC)OC(=O)CNC(=O)c1noc(-c2cc(C(C)C)c(O)cc2O)c1-c1ccc(CN2CCOCC2)cc1 | Active | Dose-dependent effect | Dose-dependent effect | 16.7 | 1.6 to 1.9 | 46 | 10.5 | 13 | Dose-dependent effect | Tde | > 24 | 4.3 | 2.1 | 6870 | Active | 0.101 | 2.8 to 3.8 | 80 | 22 | 5.7 | Drug metabolism [34]: Metabolite_Detected; Drug uptake [19]: Active; IC50 [20]: 72 nM; Activity [21]: < 20%; half-life at 50 µM [22]: 10 h; clearance [23]: 5.81 mL/min/kg; Activity (CAPAN-1 [24]): Dose-dependent effect; inhibition (Mus musculus): Active; Drug uptake [25]: Active; half-life [26]: 1.31 h; IC50 (A549 [27]): 56 nM; AUC(0-inf) [29]: 148 µg·h/mL; inhibition (HCT-116 [30]): Dose-dependent effect; IC50 (CAPAN-1 [31]): 36 nM; Activity (HCT-116 [32]): 0.32 g; Drug uptake [33]: Active |
